Test results: patent US6255073A (priority 1998, dated 2001)

B1: ovalbumin (protein, UniProt P01012 2-386, looked up)
Ovalbumin: GSIGAASMEFCFDVFKELKVHHANENIFYCPIAIMSALAMVYLGAKDSTRTQINKVVRFDKLPGFGDSIEAQCGTSVNVHSSLRDILNQITKPNDVYSFSLASRLYAEERYPILPEYLQCVKELYRGGLEPINFQTAADQARELINSWVESQTNGIIRNVLQPSSVDSQTAMVLVNAIVFKGLWEKAFKDEDTQAMPFRVTEQESKPVQMMYQIGLFRVASMASEKMKILELPFASGTMSMLVLLPDEVSGLEQLESIINFEKLTEWTSSNVMEERKIKVYLPRMKMEEKYNLTSVLMAMGITDVFSSSANLSGISSAESLKISQAVHAAHAEINEAGREVVGSAEAGVDAASVSEEFRADHPFLFCIKHIATNAVLFFGRCVSP
notes: ovalbumin (Sigma Chem. Co.) osmotically loaded into the cells

Experiments:
K^b sol = biological target: T1, K^b sol (Mus musculus, UniProt P01901); test: biochemical; conditions: read-out: dissociation rate constant
T1 sequence (P01901 22-305 limits assumed): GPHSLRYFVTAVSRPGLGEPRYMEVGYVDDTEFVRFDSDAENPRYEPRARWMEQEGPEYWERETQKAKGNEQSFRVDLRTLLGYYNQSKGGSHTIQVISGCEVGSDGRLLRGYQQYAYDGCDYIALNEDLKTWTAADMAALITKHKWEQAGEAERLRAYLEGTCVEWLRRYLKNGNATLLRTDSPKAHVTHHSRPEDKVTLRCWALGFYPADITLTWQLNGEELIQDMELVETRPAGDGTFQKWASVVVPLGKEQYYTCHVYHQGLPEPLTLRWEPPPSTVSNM
T1 sequence (P01887 21-119 partner): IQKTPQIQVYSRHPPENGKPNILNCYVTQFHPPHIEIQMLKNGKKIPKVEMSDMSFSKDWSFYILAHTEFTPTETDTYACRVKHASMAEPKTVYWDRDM

B3/CD8 T-cell hybridoma = test: Antigen presentation assay: K^b/β2 Drosophila cells cocultured with T-cell hybridoma B3/CD8, IL-2 by CTLL 3H thymidine incorporation; type: cell-based, murine; conditions: Drosophila cells transfected with K^b/β2; peptide added to medium or protein osmotically loaded
Method: Osmotic loading of SC2 and 3T3 cells with ovalbumin protein was carried out as described by Moore, et al., Cell 54: 777-785 (1988). The assay procedure is as follows. In a 96-well dish, 1×10^5 Drosophila cells (with or without peptide/protein loaded) or 3T3 cells were cocultured with 1×10^5 B3/CD8 T-cell hybridoma cells in 200 μl of RPMI media supplemented with 10 fetal bovine serum. After 24 hours of incubation, 100 μl of the supernatant from these cultures was added to 100 μl of RPMI containing 5,000 CTLL cells. The cells were cocultured for 24 hours at 37° C. when 1 μCi of ^3 H thymidine (Amersham) was added. After a further incubation of 15 hours at 37° C., the incorporation of radiolabel into the CTLL cells was determined by scintillation counting.
Assays conducted with murine MHC also verified that the insect cells are capable of loading peptide onto the Class I molecules. Cells expressing as few as 200-500 MHC molecules containing a particular antigen can be detected by a T-cell. […] Upon antigenic stimulation, B3/CD8 produces IL-2, measured by ^3 H thymidine incorporation in IL-2-dependenT-cell line CTLL (Gillis, et al., J. Immunol. 120: 2027 91978)). Thus, by measuring the amount of IL-2 produced, one can assay for T-cell recognition. […]

Row | Molecule | koff (K^b sol) [s⁻¹] | T-cell recognition (IL-2 production by B3/CD8) (B3/CD8 T-cell hybridoma)
1 | CC(C)C[C@H](NC(=O)CNC(=O)[C@H](CCC(N)=O)NC(=O)[C@H](Cc1ccc(O)cc1)NC(=O)[C@@H](NC(=O)[C@H](Cc1ccc(O)cc1)NC(=O)CNC(=O)[C@@H](N)CCCNC(=N)N)C(C)C)C(=O)O [[^125 I]VSV-8] | 0.00032 | –
2 | B1 | – | no recognition occurred
